“And” between values parts separate entries of the source, which are not always exact repeats. Identical values can stand only once. Like-named read-outs stand apart in the source and are kept apart here.
Assays:
NIH Swiss mice [1] = experiment: Locomotor activity measured by radiotelemetry in mice; format: in vivo, mouse; settings: for Locomotor activity (area under the curve) relative to vehicle controls: 10 h time course, n = 5
NIH Swiss mice [2] = experiment: Core body temperature measured by radiotelemetry in mice; format: in vivo, mouse; settings: for Core body temperature area under the curve relative to vehicle controls: 0–10 hr, n = 5; for Depression in core body temperature compared with 30 mg/kg Δ^9-THC: 10 h time course
CB1R [3] = target: T1, CB1R (Mus musculus, UniProt P47746); experiment: biochemical; format: binding; settings: for Displacement of [^3H]CP-55,940 from CB1Rs: mouse brain homogenates, data not shown; for Fold higher CB1R affinity than Δ^9-THC: relative to Δ^9-THC Ki
T1 construct: CB1Rs are endogenously expressed in abundant quantities in the CNS; from tissue; host or cells: whole brain of B6SJL mice, crude membrane homogenates

CB1R [4] = target: T1, CB1R; format: biochemical; settings: for Agonist type at mCB1Rs (partial or full) / Level of G-protein stimulation relative to Δ^9-THC: 10 µM; for Agonist type at mCB1Rs (partial or full): compared with full agonist CP-55,940; for G-protein stimulation ([^35S]GTPγS bound): receptor saturating concentration (10 µM), Fig. 3A
CB1R [5] = target: CB1R; design: method as in PMID 10940540, PMID 21079038; settings: read-out: Ki values previously reported; cited from earlier work
[6] = AM-251 10 mg/kg pretreatment, 30 mg/kg Δ^9-THC, 3 mg/kg JWH-018, 10 mg/kg M1 i.p.
[7] = concentration-effect curve, Fig. 3B, n = 3–4
[8] = Affinity (Ki) for CB1Rs, competition against 0.2 nM [^3H]CP-55,940, mouse whole brain membrane homogenates, mean ± SEM, n = 3–4

T1 sequence (P47746 whole entry): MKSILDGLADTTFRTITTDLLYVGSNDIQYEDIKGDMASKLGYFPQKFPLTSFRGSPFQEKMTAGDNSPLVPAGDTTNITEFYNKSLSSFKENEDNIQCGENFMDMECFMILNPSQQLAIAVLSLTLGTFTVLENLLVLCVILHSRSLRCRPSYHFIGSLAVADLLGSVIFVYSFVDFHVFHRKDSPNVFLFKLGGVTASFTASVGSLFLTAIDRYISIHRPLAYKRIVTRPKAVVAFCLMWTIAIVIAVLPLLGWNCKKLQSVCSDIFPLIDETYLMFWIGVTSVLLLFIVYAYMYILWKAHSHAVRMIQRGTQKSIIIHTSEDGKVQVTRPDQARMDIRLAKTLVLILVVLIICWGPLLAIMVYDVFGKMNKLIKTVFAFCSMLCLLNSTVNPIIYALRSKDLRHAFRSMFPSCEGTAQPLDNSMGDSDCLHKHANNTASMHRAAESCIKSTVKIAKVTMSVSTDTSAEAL

SMILES | Agonist type at mCB1Rs (partial or full) (CB1R [4]) | G-protein stimulation ([^35S]GTPγS bound) (CB1R [4]) [pmol/mg] | Ki (CB1R [3]; [8]) | Displacement of [^3H]CP-55,940 from CB1Rs (CB1R [3]) | Level of G-protein stimulation relative to Δ^9-THC (CB1R [4]) | other results
Cc1c(C(=O)NN2CCCCC2)nn(-c2ccc(Cl)cc2Cl)c1-c1ccc(I)cc1 [AM-251, reference compound] |  |  |  |  |  | Effect of Δ^9-THC, JWH-018 and M1 on locomotor activity after antagonist pretreatment (NIH Swiss mice [1]; [6]): significantly attenuated; Core body temperature after antagonist pretreatment of cannabinoid-treated mice (NIH Swiss mice [2]; [6]): restored core body temperature to control levels
CCCCCCC(C)(C)c1ccc([C@@H]2C[C@H](O)CC[C@H]2CCCO)c(O)c1 [CP-55,940, reference compound] | full | 0.39 ± 0.02 |  |  |  | Ki (CB1R [3]; competition against 0.2 nM [^3H]CP-55,940, mouse whole brain membrane homogenates, mean ± SEM, n = 3–4, read-out: Affinity (Ki) for CB1Rs): 0.26 ± 0.12 nM; Maximal efficacy (Emax) of G-protein activation (CB1R [4]; [7]): 0.28 ± 0.02 pmol/mg; EC50 (CB1R [4]; concentration-effect curve, Fig. 3B, n = 3–4, read-out: EC50 of G-protein activation): 3.36 ± 2.35 nM
CCCCCn1cc(C(=O)c2cccc3ccccc23)c2cc(O)ccc21 [M2, (5-hydroxy-1-pentyl-1H-indol-3-yl)(naphthalen-1-yl)methanone] | full | 0.32 ± 0.03 | 4.22 ± 1.16 nM | completely displaced | greater | 
O=C(c1cccc2ccccc12)c1cn(CCCCCO)c2ccccc12 [M5, (1-(5-hydroxypentyl)-1H-indol-3-yl)(naphthalen-1-yl)methanone] | full |  | 25.2 ± 4.99 nM | completely displaced | greater | 
CCCCCn1cc(C(=O)c2cccc3ccccc23)c2ccccc21 [JWH-018, (1-pentyl-1H-indol-3-yl)-1-naphthalenyl-methanone] | full | 0.29 ± 0.02 | 1.2 nM and 1.22 nM |  | greater | Fold higher CB1R affinity than Δ^9-THC (CB1R [3]): ~10 fold; Maximal efficacy (Emax) of G-protein activation (CB1R [4]; [7]): 0.29 ± 0.02 pmol/mg; Locomotor activity (area under the curve) relative to vehicle controls (NIH Swiss mice [1]; 3 mg/kg i.p.): significantly decrease; Core body temperature area under the curve relative to vehicle controls (NIH Swiss mice [2]; 3 mg/kg i.p.): significantly lower than vehicle controls; Depression in core body temperature compared with 30 mg/kg Δ^9-THC (NIH Swiss mice [2]; 3 mg/kg i.p.): greater depressions; Ki (CB1R [5]): 9 nM
CCCCCn1cc(C(=O)c2cccc3ccccc23)c2ccc(O)cc21 [M3, (6-hydroxy-1-pentyl-1H-indol-3-yl)(naphthalen-1-yl)methanone] | full |  | 17.2 ± 3.58 nM | completely displaced | greater | 
CCCCCn1cc(C(=O)c2cccc3ccccc23)c2cccc(O)c21 [M4] | partial |  | 20.8 ± 4.85 nM | completely displaced | equivalent | 
O=C(O)CCCCn1cc(C(=O)c2cccc3ccccc23)c2ccccc21 [M6, 5-(3-(1-naphthoyl)-1H-indol-1-yl)pentanoic acid] |  |  | > 10000 nM |  |  | Affinity (Ki) for CB1Rs (CB1R [3]; competition against 0.2 nM [^3H]CP-55,940, mouse whole brain membrane homogenates, mean ± SEM, n = 3–4): fails to bind
CCCCCn1cc(C(=O)c2cccc3ccccc23)c2c(O)cccc21 [M1, (4-hydroxy-1-pentyl-1H-indol-3-yl)(naphthalen-1-yl)methanone] | partial |  | 2.6 nM and 2.65 nM | completely displaced | greater | Fold higher CB1R affinity than Δ^9-THC (CB1R [3]): ~10 fold; Locomotor activity (area under the curve) relative to vehicle controls (NIH Swiss mice [1]; 10 mg/kg i.p.): significantly decrease; Core body temperature area under the curve relative to vehicle controls (NIH Swiss mice [2]; 10 mg/kg i.p.): significantly lower than vehicle controls; Depression in core body temperature compared with 30 mg/kg Δ^9-THC (NIH Swiss mice [2]; 10 mg/kg i.p.): greater depressions

Reference: publication PMC3130777, “Phase I Hydroxylated Metabolites of the K2 Synthetic Cannabinoid JWH-018 Retain In Vitro and In Vivo Cannabinoid 1 Receptor Affinity and Activity” (PLoS ONE, 2011)
